Results from patent publication US20080269202A1, “Novel 2,3-benzodiazepine derivatives and their use as antipsychotic agents” (Teva Pharmaceutical Industries Ltd., priority 2007, published 2008).
Read-outs that look alike come from different tables or passages of the source.

How the values were obtained:
[1] = target: central dopaminergic receptors (Homo sapiens, UniProt P21728); assay: in vitro binding profile to central dopaminergic receptors (Table 3); settings: human recombinant CHO cells, ligand [3H]SCH-23390; read-out: D1 binding
Description: (§1) The new 2,3-benzodiazepine atypical antipsychotic agents of formula (I) of the present invention influence dopaminergic neurotransmission by a unique indirect fashion, differently from both the first and second generation antipsychotics. The in vitro binding profile of these compounds (Table 3) differs from that of the first generation antipsychotics which bind to dopaminergic receptors and second generation antipsychotics, representatives of which show affinity for dopaminergic, serotonergic, or adrenergic receptors.

[2] = target: central dopaminergic receptors (Homo sapiens, UniProt P35462); assay: as above; settings: human recombinant CHO cells, ligand [3H]spiperone (footnote prints D2); read-out: D3 binding
Description: as §1

[3] = target: central dopaminergic receptors (Rattus norvegicus, UniProt P61169); assay: as above; settings: rat striatal membranes, ligand [3H]sulpirid; read-out: D2 binding
Description: as §1

[4] = target: T1, serotonergic receptors (Rattus norvegicus, UniProt P14842); assay: in vitro binding profile to serotonergic receptors (Table 3); settings: rat cerebral cortical membranes, ligand [3H]ketanserin; read-out: 5HT2A binding
T1 construct: other: rat cerebral cortical membranes, ligand [3H]ketanserin
Description: as §1

[5] = target: T2, serotonergic receptors (Rattus norvegicus, UniProt P19327); assay: as above; settings: rat hippocampal membranes, ligand [3H]-8-OH-DPAT; read-out: 5HT1A binding
T2 construct: other: rat hippocampal membranes, ligand [3H]-8-OH-DPAT
T2 sequence (P19327 1-422): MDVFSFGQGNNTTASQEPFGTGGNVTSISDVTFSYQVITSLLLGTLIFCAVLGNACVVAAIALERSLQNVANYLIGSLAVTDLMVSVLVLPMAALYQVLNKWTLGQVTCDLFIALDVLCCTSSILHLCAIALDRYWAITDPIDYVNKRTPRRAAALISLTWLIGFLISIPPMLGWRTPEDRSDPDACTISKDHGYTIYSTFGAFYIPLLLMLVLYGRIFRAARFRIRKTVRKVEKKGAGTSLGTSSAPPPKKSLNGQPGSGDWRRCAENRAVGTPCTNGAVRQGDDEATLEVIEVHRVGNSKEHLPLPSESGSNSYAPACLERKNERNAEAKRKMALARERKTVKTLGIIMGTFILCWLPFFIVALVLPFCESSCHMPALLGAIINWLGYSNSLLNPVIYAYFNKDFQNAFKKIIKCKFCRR
Description: as §1

[6] = target: T3, adrenergic receptors; assay: in vitro binding profile to adrenergic receptors (Table 3); settings: rat cerebral cortical membranes, ligand [3H]prazosin; read-out: α1 binding
T3 construct: other: rat cerebral cortical membranes, ligand [3H]prazosin
Description: as §1

[7] = target: T4, adrenergic receptors; assay: as above; settings: rat cerebral cortical membranes, ligand [3H]yohimbine; read-out: α2 binding
T4 construct: other: rat cerebral cortical membranes, ligand [3H]yohimbine
Description: as §1

[8] = test system: apomorphine-induced climbing; assay: apomorphine-induced climbing test in mice; type: in vivo, CD1 mice; settings: Mus musculus, read-out: Climbing ED50 (mg/kg ip.)
Experimental: (§2) Anti-apomorphine effects were investigated in the climbing test in mice mediated through the mesolimbic and stereotypy test in rats mediated through the nigrostriatal system. Conventional antipsychotics antagonize both apomorphine-induced behaviours, while known atypical antipsychotics are weaker against apomorphine stereotypy.
The climbing test was carried out according to Protais et al. (Protais, P. et al. Psychopharmacologia, 1976, 50, 1.) Stereotyped behavior was induced in food deprived (for 16 hours) male CD1 mice weighing 20-25 g body by apomorphine HCl (SIGMA) in a s.c. dose of 2 mg/kg. Mice were placed individually into cylinders having 12 cm diameter and consisting of vertical bars of 2 mm diameter where apomorphine treated animals tended to adopt a vertical position in contrary to vehicle treated controls. Test substances were applied ip. 30 min before apomorphine.
10 and 20 min after apomorphine treatment the climbing behaviour was evaluated by scores of 0-2. 10 mice/group were used. The scores of the two readings were summed individually, meaned and compared to the control. The ED50 values were calculated by Litchfield-Wilcoxon's method (Litchfield Jr. J. T., Wilcoxon, F. J. Pharmacol. Exp. Ther. 1949, 96, 49,).

[9] = test system: apomorphine-induced stereotyped behavior; assay: apomorphine-induced stereotypy; type: in vivo, CD1 mice; settings: Mus musculus, read-out: Stereotypy ED50 (mg/kg po.)
Description: as §2
Apomorphine-induced stereotypy was investigated according to Costall and Naylor (B. Costall and R. J. Naylor, Eur. J. Pharmacol. 1972, 18, 95) in male CD1 mice of 20-25 g body weight after 16 hours deprivation of food. 30 min before treatment mice were individually placed into small, transparent acrylic cages for habituation. Test substances were administered orally in a volume of 0.1 ml/10 g. 30 min later mice were treated with apomorphine HCl (SIGMA) in a subcutaneous dose of 2 mg/kg. […] The scores were summed individually, meaned and compared to the control group. The ED50 values were calculated by Litchfield-Wilcoxon's method (J. Pharmacol. Exp. Ther. 1949, 96, 49,).

[10] = test system: PCP-induced locomotion; assay: PCP induced locomotor activity test (open field); type: in vivo, mice; settings: all doses (1, 3, 6, 10, 15 mg/kg) by gavage, PCP 5 mg/kg, vs vehicle
Experimental: The effects of compounds 121 and 183, administered orally, were also evaluated in the PCP induced locomotor activity test. Compound 121 was designated as “Compound A” and Compound 183 was designated as “Compound B” for purposes of this study. In general, the study aimed to test Compounds A and B for potential antipsychotic activity in PCP treated mice.
Compounds A & B were dissolved in 3% Tween: Compound A: 1, 3, 6, 10, and 15 mg/kg; Compound B: 3, 7, 14, 28, and 40 mg/kg; Compounds A+B were administered by gavage.
PCP (5 mg/kg) was dissolved in sterile injectable water.
The open field (“OF”) test assessed both anxiety and locomotor behavior. The open field chambers are Plexiglas square chambers (27.3×27.3×20.3 cm; Med Associates Inc., St Albans, Vt.) surrounded by infrared photobeams (16×16×16) to measure horizontal and vertical activity. The analysis was configured to divide the open field into a center and periphery zone. Distance traveled was measured from horizontal beam breaks as the mouse moved whereas rearing activity was measured from vertical beam breaks.
Mice were brought to the activity experimental room for at least 1 hr acclimation to the experimental room conditions prior to testing. […]
Data was analyzed to show baseline activity (activity during the 30 min prior to PCP injection) and PCP-induced activity (activity during the 60 min after PCP injection).

[11] = test system: PCP-induced disruption of PPI; assay: PCP-induced disruption of pre-pulse inhibition (PPI)
Description: Male C57B1/6J mice from Jackson Laboratories (Bar Harbor, Me.) were used in this study. Mice were received at 6-weeks of age. Upon receipt, mice were assigned unique identification numbers (tail marked) and were group housed in OPTImice cages. All animals remained housed in groups of four during the remainder of the study. […] During the period of acclimation, mice were examined on a regular basis, handled, and weighed to assure adequate health and suitability. Mice were maintained on a 12/12 light/dark cycle with the light on at 6:00 a.m. The room temperature was maintained between 20 and 23° C. with a relative humidity maintained between 30% and 70%. Food and water were provided ad libitum for the duration of the study. In each test, animals were randomly assigned across treatment groups.
All compounds were injected i.p. at a dose volume of 10 ml/kg. […] Phenylcyclohexylpiperidine (PCP) (8 mg/kg) was dissolved in sterile water.
The acoustic startle measured an unconditioned reflex response to external auditory stimulation. […] Mice were placed in the PPI chambers (Med Associates) for a 5 min session of white noise (70 dB) habituation.
After the acclimation period the test session was automatically started. The session started with a habituation block of 6 presentations of the startle stimulus alone, followed by 10 PPI blocks of 6 different types of trials. Trial types are: null (no stimuli), startle (120 dB), startle plus prepulse (4, 8 and 12 dB over background noise i.e. 74, 78 or 82 dB) and prepulse alone (82 dB). Trial types were presented at random within each block.
Each trial started with a 50 ms null period during which baseline movements were recorded. There was a subsequent 20 ms period during which prepulse stimuli were presented and responses to the prepulse measured. After further 100 ms the startle stimuli were presented for 40 ms and responses recorded for 100 ms from startle onset. Responses were sampled every ms. The inter-trial interval was variable with an average of 15 s (range from 10 to 20 s). In startle alone trials the basic auditory startle was measured and in prepulse plus startle trials the amount of inhibition of the normal startle was determined and expressed as a percentage of the basic startle response (from startle alone trials), excluding the startle response of the first habituation block.
Data were analyzed by analysis of variance (ANOVA) followed by post-hoc comparisons with Fisher Tests when appropriate. An effect was considered significant if p<0.05. Data are represented as the mean and standard error to the mean.

[12] = mice, ip. 30 min before apomorphine 2 mg/kg s.c.
[13] = mice, po. 30 min before apomorphine 2 mg/kg s.c.

Chain of central dopaminergic receptors (Rattus norvegicus, UniProt P61169) (P61169 whole entry): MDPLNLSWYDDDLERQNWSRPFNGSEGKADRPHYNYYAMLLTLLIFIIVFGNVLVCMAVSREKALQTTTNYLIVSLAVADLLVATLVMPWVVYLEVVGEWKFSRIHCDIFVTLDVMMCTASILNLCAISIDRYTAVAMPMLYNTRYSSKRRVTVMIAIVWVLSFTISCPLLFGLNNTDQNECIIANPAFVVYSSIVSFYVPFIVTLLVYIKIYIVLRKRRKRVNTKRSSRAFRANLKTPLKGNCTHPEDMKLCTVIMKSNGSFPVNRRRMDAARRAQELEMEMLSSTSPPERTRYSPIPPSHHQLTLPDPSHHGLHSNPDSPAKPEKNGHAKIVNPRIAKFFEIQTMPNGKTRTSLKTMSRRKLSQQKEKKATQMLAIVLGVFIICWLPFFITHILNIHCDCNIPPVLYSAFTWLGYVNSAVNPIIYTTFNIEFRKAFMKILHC
Chain of central dopaminergic receptors (Homo sapiens, UniProt P21728) (P21728 whole entry): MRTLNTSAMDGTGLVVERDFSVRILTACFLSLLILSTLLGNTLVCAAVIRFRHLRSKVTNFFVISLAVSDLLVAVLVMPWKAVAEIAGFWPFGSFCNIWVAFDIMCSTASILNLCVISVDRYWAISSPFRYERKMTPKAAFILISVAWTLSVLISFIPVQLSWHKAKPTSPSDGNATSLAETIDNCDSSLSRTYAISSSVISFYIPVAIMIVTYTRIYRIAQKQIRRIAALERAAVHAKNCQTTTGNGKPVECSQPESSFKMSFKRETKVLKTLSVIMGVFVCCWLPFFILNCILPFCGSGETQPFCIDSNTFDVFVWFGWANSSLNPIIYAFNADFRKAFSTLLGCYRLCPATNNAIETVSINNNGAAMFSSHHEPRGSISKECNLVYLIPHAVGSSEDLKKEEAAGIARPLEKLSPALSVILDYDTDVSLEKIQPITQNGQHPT
Chain of central dopaminergic receptors (Homo sapiens, UniProt P35462) (P35462 whole entry): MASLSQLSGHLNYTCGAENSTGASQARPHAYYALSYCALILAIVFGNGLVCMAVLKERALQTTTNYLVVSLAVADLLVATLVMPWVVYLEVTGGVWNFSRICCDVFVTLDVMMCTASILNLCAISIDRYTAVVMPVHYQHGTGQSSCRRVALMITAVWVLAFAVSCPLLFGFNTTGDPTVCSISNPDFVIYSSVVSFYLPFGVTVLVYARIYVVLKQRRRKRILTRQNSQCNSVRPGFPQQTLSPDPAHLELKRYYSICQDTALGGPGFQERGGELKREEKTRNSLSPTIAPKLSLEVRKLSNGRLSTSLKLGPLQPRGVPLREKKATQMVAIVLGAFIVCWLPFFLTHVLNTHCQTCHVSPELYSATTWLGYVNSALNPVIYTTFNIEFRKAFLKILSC
T1 sequence (P14842 whole entry): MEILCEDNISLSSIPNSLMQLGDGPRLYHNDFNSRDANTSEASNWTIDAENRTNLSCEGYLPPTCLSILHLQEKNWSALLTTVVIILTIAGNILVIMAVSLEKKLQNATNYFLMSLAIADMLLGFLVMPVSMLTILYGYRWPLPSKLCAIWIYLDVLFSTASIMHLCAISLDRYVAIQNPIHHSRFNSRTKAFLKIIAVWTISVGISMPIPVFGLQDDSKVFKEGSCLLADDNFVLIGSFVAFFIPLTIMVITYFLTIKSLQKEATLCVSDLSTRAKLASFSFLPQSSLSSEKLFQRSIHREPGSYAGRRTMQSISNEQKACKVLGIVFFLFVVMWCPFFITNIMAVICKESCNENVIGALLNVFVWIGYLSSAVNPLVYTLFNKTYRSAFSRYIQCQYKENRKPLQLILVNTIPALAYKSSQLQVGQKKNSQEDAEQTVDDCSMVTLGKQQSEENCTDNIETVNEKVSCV

Compound	Ki [1] [µM]	Ki [2] [µM]	Ki [3] [µM]	Ki [4] [µM]	Ki [5] [µM]	Ki [6] [µM]	Ki [7] [µM]	ED50 [8, 12] [mg/kg]	ED50 [9, 13] [mg/kg]	ED50 [8] [mg/kg]	ED50 [9] [mg/kg]	effect on PCP induced locomotion [10]	sedation and lethargy in the mice ([11]; 5 mg/kg i.p. (high dose))	reversal of PCP-induced disruption of PPI ([11]; 2.5 and 5 mg/kg i.p., PCP 8 mg/kg, C57B1/6J mice)
COc1cc2c(cc1OC)C(c1ccc(N)c(C)c1)=NN(c1ncon1)[C@H](C)C2 [Example 104]	> 10	> 10	> 10	> 10	> 10	> 10	> 10	7.7	6.97	–	–	–	–	–
COc1cc2c(cc1OC)C(c1ccc(N)c(C)c1)=NN(c1nncs1)[C@H](C)C2 [Example 110]	> 10	> 10	> 10	> 10	> 10	> 10	> 10	14.6	3.5	–	–	–	–	–
CNC(=O)N1N=C(c2ccc(N)cc2)c2cc(OC)c(OC)cc2C[C@H]1C [Example 121]	> 10	> 10	> 10	> 10	> 10	> 10	> 10	–	–	4.31	3.54	significantly decreased	caused sedation and lethargy	significantly reversed
CNC(=O)N1N=C(c2ccc(N)c(C)c2)c2cc(OC)c(OC)cc2C[C@H]1C [Example 123]	> 10	> 10	> 10	> 10	> 10	> 10	> 10	–	–	9.2	7.52	–	–	–
